Here are results for seven molecules from ChEMBL document CHEMBL1138722, “3-(2-Methoxytetrahydrofuran-2-yl)pyrazoles: a novel class of potent, selective cyclooxygenase-2 (COX-2) inhibitors” (Bioorg Med Chem Lett, 2004).

Experiment [1] deals with T1, Prostaglandin G/H synthase 1 (Homo sapiens, UniProt P23219). Briefly: In vitro inhibition of Prostaglandin G/H synthase 1 in human whole blood at 100 uM. The class given is tissue-based.
Experiment [2] addresses T2, Prostaglandin G/H synthase 2 (Homo sapiens) (UniProt P35354).
T2 sequence (whole entry): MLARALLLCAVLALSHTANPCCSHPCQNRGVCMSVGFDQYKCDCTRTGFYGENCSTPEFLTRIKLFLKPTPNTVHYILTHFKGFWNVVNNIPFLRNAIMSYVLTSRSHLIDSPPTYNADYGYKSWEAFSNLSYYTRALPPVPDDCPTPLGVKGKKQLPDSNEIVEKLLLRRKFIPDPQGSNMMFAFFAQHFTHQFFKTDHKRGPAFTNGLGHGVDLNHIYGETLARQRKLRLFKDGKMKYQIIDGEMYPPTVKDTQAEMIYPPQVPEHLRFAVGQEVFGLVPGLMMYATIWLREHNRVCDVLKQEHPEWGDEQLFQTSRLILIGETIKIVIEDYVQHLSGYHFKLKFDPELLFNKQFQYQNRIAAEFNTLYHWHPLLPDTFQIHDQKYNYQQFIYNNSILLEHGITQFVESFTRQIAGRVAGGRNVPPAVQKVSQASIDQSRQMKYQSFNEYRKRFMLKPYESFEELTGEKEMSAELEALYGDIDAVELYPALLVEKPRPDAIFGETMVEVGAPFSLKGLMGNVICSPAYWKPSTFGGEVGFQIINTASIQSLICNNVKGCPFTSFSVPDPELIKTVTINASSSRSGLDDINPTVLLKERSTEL
As to conditions: Blood, at 1 µM.
Description: In vitro inhibition of Prostaglandin G/H synthase 2 in human whole blood at 1 uM

The target of experiment [3] is T2, Prostaglandin G/H synthase 2 (Homo sapiens). The conditions noted are these: Blood, at 10 µM.
Description: In vitro inhibition of Prostaglandin G/H synthase 2 in human whole blood at 10 uM
Experiment [4] concerns the target T1, Prostaglandin G/H synthase 1. Briefly: In vitro inhibition of Prostaglandin G/H synthase 1 in human whole blood. The class given is tissue-based.
In experiment [5] the target is T3, Prostaglandin G/H synthase 2 (Homo sapiens, UniProt P35354).
T3 sequence (P35354 whole entry): T2 sequence (whole entry)
Description: In vitro inhibition of Prostaglandin G/H synthase 2 in human whole blood. The class given is tissue-based.

T1 sequence (P23219 whole entry): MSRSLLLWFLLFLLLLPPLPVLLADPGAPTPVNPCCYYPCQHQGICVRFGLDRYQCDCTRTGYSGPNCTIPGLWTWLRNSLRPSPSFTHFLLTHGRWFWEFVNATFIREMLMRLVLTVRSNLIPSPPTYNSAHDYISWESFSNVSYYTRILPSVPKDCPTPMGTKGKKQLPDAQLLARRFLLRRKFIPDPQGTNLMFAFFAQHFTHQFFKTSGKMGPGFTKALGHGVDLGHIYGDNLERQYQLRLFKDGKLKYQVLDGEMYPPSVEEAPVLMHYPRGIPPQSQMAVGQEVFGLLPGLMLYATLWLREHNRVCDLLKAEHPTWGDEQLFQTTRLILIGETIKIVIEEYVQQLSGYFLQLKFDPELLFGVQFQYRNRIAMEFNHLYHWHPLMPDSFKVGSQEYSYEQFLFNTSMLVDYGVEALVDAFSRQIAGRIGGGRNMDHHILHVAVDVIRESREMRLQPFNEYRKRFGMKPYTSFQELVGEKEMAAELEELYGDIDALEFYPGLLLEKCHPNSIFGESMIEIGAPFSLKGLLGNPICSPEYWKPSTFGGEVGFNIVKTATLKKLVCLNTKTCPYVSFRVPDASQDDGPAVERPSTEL

One may read the inhibition as the share of the control response that was lost under treatment. A low value points to little suppression. For the molecule `COC1(c2cc(-c3ccc(S(C)(=O)=O)cc3)n(-c3ccc(C#N)cc3)n2)CCCO1` (stereo not drawn), the inhibition in experiment [1] was determined as 0%; in experiment [2], 30%; in experiment [3] it was 25%.

Turning to `COC1(c2cc(-c3ccc(S(C)(=O)=O)cc3)n(-c3ccccc3)n2)CCCO1` (stereo not drawn), the inhibition in experiment [1] stood at 20%; in experiment [2] it was 30%; in experiment [3], 65%.

Turning to `COC1(c2cc(-c3ccc(S(C)(=O)=O)cc3)n(-c3ccc(F)cc3)n2)CCCO1` (stereo not drawn), the inhibition was 25% in experiment [1], 40% in experiment [2] and 75% in experiment [3].

One may read the IC50 as the midpoint of a concentration-inhibition curve. Low readings indicate greater potency, high ones weaker potency. For `COC1(c2cc(-c3ccc(S(C)(=O)=O)cc3)n(-c3ccc(C)cc3)n2)CCCO1` (stereo not drawn), the 50% inhibitory concentration (IC50) in experiment [4] is greater than 100 µM; in experiment [5] it was 1200 nM. For the same molecule, the inhibition in experiment [1] was 55%; in experiment [2], 55%; in experiment [3], 90%.

As for `COC1(c2cc(-c3ccc(S(C)(=O)=O)cc3)n(-c3ccc(Cl)cc3)n2)CCCO1` (stereo not drawn), the inhibition in experiment [1] is 60%; in experiment [2] it was 25%; in experiment [3], 80%.

As for `COC1(c2cc(-c3ccc(S(C)(=O)=O)cc3)n(-c3ccc(C(F)(F)F)cc3)n2)CCCO1` (stereo not drawn), the inhibition was found to be 50% in experiment [1], 25% in experiment [2] and 70% in experiment [3].

`COC1(c2cc(-c3ccc(S(C)(=O)=O)cc3)n(-c3ccc(Br)cc3)n2)CCCO1` (stereo not drawn): the inhibition in experiment [1] was found to be 72%; in experiment [2] it was 13%; in experiment [3] it was 84%.
